US9618524B2, “Method, composition, isolation and identification of a plaque particle and related biomarker” (Plaxgen Inc., priority 2012, dated 2017)

Tests used:
Test in all cases: Mass spectroscopy proteomics, semi-quantitative binding affinity of serum proteins (plaqueproteome, Table 2)
Details in all cases: higher number = stronger affinity
[1] = target: T1, Abeta-42 plaque particles (Homo sapiens, UniProt P05067)
T1 construct: Abeta 1-42
Procedure: Next to isolate serum derived Abeta-42 plaque particles, the plasma or serum samples obtained from AD subjects were first centrifuged at 5,000 rpm for 5 min and the supernatants were transferred to new centrifuge tubes. Next, the supernatants were diluted in PBS to make 50% of the serum and plasma samples and used for incubation with Abeta-42 plaque oligomers/aggregates. Each assay was performed in 1 mL reaction (800 μL of 50% plasma or serum) and 200 μL (30 μg) of the Abeta-42 aggregates and the mixtures were incubated at 37° C. for 1 hr. To the mixture Thioflavin S dye (120 μg) was added and the sample was incubated for additional 30 min at 37° C. After the incubation, the mixture was directly used for sample acquisition using flow cytometer (FACS ARIA II, BD Biosciences, San Jose, Calif.). After initial detection of Abeta-42 plaque particles in the acquisition blot, gates were drawn in fluorescent dot blot to separately sort and isolate fluorescently labeled Abeta-42 particles.
(§1) For preparing trypsin digested peptide sequences, the isolated plaque particles were centrifuged at 10000 rpm for 5 min and the pellet containing plaque particles was resuspended in 100 μl PBS buffer. Stock solutions of digestion buffer (Ammonium Biocarbonate 50 mM), reducing buffer (DDT 100 mM) and alkylation buffer (lodoaceamide 100 mM) were prepared and stored at −20° C. for up to two months. For trypsin digestion, 100 μl of each plaque particles (2000 of Abeta-42, cholesterol, Tau and alpha-synuclein) were precipitated using cold acetone −80° C. by adding 4X's the volume. The samples were placed on dry ice for 10 min with intermittent vortex. Next, the samples were centrifuged at 4° C. at 10000 G for 10 min. Top layer of acetone was carefully removed from the tube with care not to disturb the plaque particles pellet. The samples were speed-vac for 10 min to ensure all acetone has been boiled away. The plaque particles pellet were reconstituted with 15 μl 8M Urea 100 mM Ammonium bicarbonate stock and 20 μl protease max solution. The protease max solution (Promega, Madison, Wis.) was prepared from stock by adding 60 μl 50 mM Ammonium bicarbonate and used for 3 solution digests (20 μl each). […] The tubes were incubated at 55° C. for 30 minutes. The tubes were then removed and brought to the room temperature followed by addition of 3.2 μl of 1M acrylamide and incubated at room temperature for 30 minutes. To the sample, 63 μL of 50 mM Ammonium bicarbonate was added for a final volume of 98 μl and 2 μl of trypsin (10 μg, Trypsin/Lys C Mix). After mixing the solution with pipet the samples were incubated at 37° C. overnight. After the overnight digest, the tryptic digest were quenched and acidified by adding 10 μl of 50% formic acid/water stock dilution. The samples were centrifuged at 10000 G for 2 minutes and purified using stage tip and used for MS/Mass analysis.
(§2) All MS/MS samples were analyzed using Sequest (Thermo Fisher Scientific, San Jose, Calif., USA; version 1.0). Sequest was set up to search the SUMS_uniprot_Human database (35847 entries) assuming the digestion enzyme strict trypsin. Sequest was searched with a fragment ion mass tolerance of 1.00 Da and a parent ion tolerance of 20 PPM. Propionamide of cysteine was specified in Sequest as a fixed modification. Oxidation of methionine and phospho of serine, threonine and tyrosine were specified in Sequest as variable modifications.
Scaffold (version Scaffold_4.2.1, Proteome Software Inc., Portland, Oreg.) was used to validate MS/MS based peptide and protein identifications. […] Protein probabilities were assigned by the Protein Prophet algorithm (Nesvizhskii, Al et al 2003). […] Proteins sharing significant peptide evidence were grouped into clusters. Proteins were annotated with GO terms from NCBI (downloaded Jan. 17, 2014).

[2] = system: High Density cholesterol (Chl Large) plaque particles; parameters: species or system human
Procedure: (§3) The goal was to isolate plaque particles synthesized in the bio-fluids in a relatively pure form to enable their subsequent use for identification of components that contribute to the plaque formation. In order to isolate cholesterol plaque particles, the plasma or serum samples obtained from atherosclerotic subjects were first centrifuged at 5,000 rpm for 5 min and the supernatants were transferred to new centrifuge tubes. Next, the supernatants were diluted in PBS to make 50% of the serum and used for incubation with cholesterol oligomers/aggregates. Each assay was performed in 1 mL reaction (800 μL of 50% plasma or serum) and 200 μL (30 μg) of the Cholesterol aggregates and the mixtures were incubated at 37° C. for 1 hr After the incubation, the mixture was directly used for sample acquisition using flow cytometer (FACS ARIA II, BD Biosciences, San Jose, Calif.). […] In order to isolate these fractions, three sets of gates were drawn in the acquisition blot to separately sort and isolate High density or high complex cholesterol particles, Low density or low complex cholesterol particles and both High and low density cholesterol particles together.
as §1, §2
(§4) Scaffold (version Scaffold_4.2.1, Proteome Software Inc., Portland, Oreg.) was used to validate MS/MS based peptide and protein identifications. […] Protein probabilities were assigned by the Protein Prophet algorithm (Nesvizhskii, Al et al 2003).

[3] = system: Low density cholesterol (Chl small) plaque particles; parameters: species or system human
Procedure: as §3, §1, §2, §4

[4] = target: T2, alpha-synuclein plaque particles (Homo sapiens, UniProt P37840)
T2 construct: 140 amino acids polypeptide
Procedure: To prepare oligomers/aggregates of human alpha-synuclein (140 amino acids polypeptide), 1 mg of the recombinant alpha-synuclein protein was suspended in 1 mL of PBS and the sample was incubated at 37° C. for 2 hrs. After incubation, all the samples were centrifuged for 5 min. at 5000 rpm to remove precipitate, if any, and the supernatant containing oligomers/aggregates were used in vitro plaque particles formation assay. For detecting alpha-synuclein plaque particles Thioflavin S (Ex/Em=430 nm/550 nm) amyloid binding fluorescent dye (10 μg) was used.
Similarly, to isolate alpha-synuclein plaque particles, diluted plasma or serum samples obtained from AD subjects were used for incubation with alpha-synuclein plaque oligomers/aggregates. Each assay was performed in 1 mL reaction (800 μL of 50% plasma or serum) and 200 μL (30 μg) of the alpha-synuclein aggregates and the mixtures were incubated at 37° C. for 1 hr. To the mixture Thioflavin S dye (120 μg) was added and the sample was incubated for additional 30 min at 37° C. After the incubation, the mixture was directly used for sample acquisition using flow cytometer (FACS ARIA II, BD Biosciences, San Jose, Calif.). After initial detection of alpha-synuclein plaque particles, gates were drawn in the acquisition blot to separately sort and isolate fluorescently labeled alpha-synuclein particles.
as §1, §2
Scaffold (version Scaffold_4.2.1, Proteome Software Inc., Portland, Oreg.) was used to validate MS/MS based peptide and protein identifications.

[5] = system: Tau plaque particles; parameters: species or system human
Procedure: For Tau-74 (74-102) (Exon 3/Insert 2 domain) preparation, 1 mg of Tau-74 was suspended in 1 mL of PBS and the sample was incubated at 37° C. for 2 hrs. Similarly for preparing Tau-275 (275-305) (Repeat 2 domain) 1 mg of the peptide was suspended in 1 mL of PBS and the sample was incubated at 37° C. for 2 hrs. After incubation, all the samples were centrifuged for 5 min. at 5000 rpm to remove precipitate, if any, and the supernatant containing oligomers/aggregates were used for in vitro amyloid plaque particles formation assay. For detecting Tau plaque particles, Thioflavin S (Ex/Em=430 nm/550 nm) amyloid binding fluorescent dye (10 μg) was used in the assay.
Next, to isolate Tau plaque particles, as performed for Abeta-42 and Abeta-28 plaque particles isolation, diluted serum samples were used for incubation separately with Tau-45, Tau-74 and Tau-275 oligomers/aggregates. Each assay was performed in 1 mL reaction (800 μL of 50% plasma or serum) and 200 μL (30 μg) of each Tau aggregates and the mixtures were incubated at 37° C. for 1 hr. To the each mixture Thioflavin S dye (120 μg) was added and the sample was incubated for additional 30 min at 37° C. After the incubation, each sample was directly used for sample acquisition using flow cytometer (FACS ARIA II, BD Biosciences, San Jose, Calif.). After initial detection of Tau plaque particles, gates were drawn in the acquisition blot to separately sort and isolate fluorescently labeled Tau plaque particles.
as §1, §2

Row | Substance | Semi-quantitative analysis of proteins binding to different plaque particles: Abeta-42 [1] | Semi-quantitative analysis of proteins binding to different plaque particles: Chl Large [2] | Semi-quantitative analysis of proteins binding to different plaque particles: Chl small [3] | Semi-quantitative analysis of proteins binding to different plaque particles: Synuclein [4] | Semi-quantitative analysis of proteins binding to different plaque particles: Tau [5]
1 | Ig kappa chain V-I region CAR | 5 | 1 | 1 | 1 | 1
2 | Cluster of Ig kappa chain V-I region HK102 | 5 | 1 | 1 | 1 | 1
3 | Serum amyloid P-component | 5 | 1 | 1 | 0 | 2
4 | Ig heavy chain V-III region WA | 4 | 1 | 2 | 0 | 1
5 | Complement C4-B | 32 | 44 | 35 | 37 | 52
6 | Isoform Short of Heterogeneous nuclear ribonucleoprotein | 4 | 0 | 0 | 0 | 0
7 | Complement component C8 gamma chain | 0 | 0 | 1 | 2 | 2
8 | Plasma protease C1 inhibitor | 4 | 7 | 7 | 9 | 3
9 | Hemoglobin subunit delta | 0 | 0 | 0 | 2 | 0
10 | Myosin-6 | 17 | 0 | 0 | 0 | 0
11 | Serotransferrin | 46 | 66 | 73 | 78 | 48
12 | Haptoglobin | 23 | 27 | 29 | 22 | 24
13 | Cluster of Complement C3 | 63 | 73 | 67 | 71 | 85
14 | Apolipoprotein A-I | 19 | 21 | 21 | 18 | 14
